Measured values taken from US8128943B2, “Use of oxazole derivatives for controlling fish parasites” (Novartis AG, priority 2005, dated 2012).

Assays:
salmon lice [1] = experiment: Toxicity to salmon lice, contact action test in sea water beakers; type: in vivo, salmon louse; settings: after 24 hours; lowest concentration of 5 μg/l in sea water, 10° C.; adult salmon lice
Method: Biological Examples 1. Toxicity to Salmon Lice (In Vitro Test) a) Collecting and Cultivating the Salmon Lice
Adult and pre-adult stages of the salmon louse are gently removed with broad forceps from naturally infected Atlantic salmon which have been kept in fish farms, separated according to stage and sex, and kept in sea water tanks at 10° C. and under continuous aeration. The sea water used for cultivating the lice comes from the fish farm from which the infected salmon have been taken. The tests themselves are carried out over 48 hours after collecting the lice.
b) In Vivo Test for Determining the Contact Action of the Control Agent
Into each of three test sets of three 500 ml-glass beakers, filled with sea water (salinity […], temperature 10° C.) containing 5, 500 and 5000 μg/l of the active substance, respectively, 5 female and 5 male adults of salmon lice are added. The beaker are then transferred to an incubator and held at 10° C. for 48 hours in the dark. Live survival of the salmon lice is determined at 1, 24 and 48 hours from the start of the exposure. All lice are examined and recorded as alive, moribund or dead.

salmon lice [2] = experiment: Toxicity against salmon lice (in vivo test) on naturally infected Atlantic salmon, bath treatment; settings: long lasting tests on salmon; one single treatment at 0.1 ppm
Method: 2. Toxicity Against Salmon Lice (In Vivo Test)
Five naturally infected Atlantic salmon are taken from the cage and transferred to well aerated sea water tanks. They remain there for 48 hours for acclimatization, and feed is withheld for 24 hours before the addition of test compound. A group of 5 salmon is treated at a concentration of 1.0 ppm of test compound, and a second group of 5 salmon is treated at a concentration of 0.1 ppm. The fish are kept for 24 hours in fresh sea water (without test compound) and a count is then made of dead and still living parasites. An untreated group of fish is also included in the evaluation. The test is carried out in triplicate.

fish = experiment: Tolerance by fish in long lasting tests on salmon; type: in vivo
sea lice = settings: in sea water; cited from earlier work

FC(F)(F)c1ccc(-c2ccc(C3COC(c4c(Cl)cccc4Cl)=N3)cc2)cc1 (centres unmarked) [2-(2,6-Dichlorophenyl)-4-(4′-trifluoromethylbiphenyl-4-yl)-4,5-dihydro-oxazole]
survival rate (salmon lice [1]): 0%

Fc1cccc(F)c1C1=NC(c2ccc(-c3ccc(C(F)(F)F)cc3)cc2)CO1 (centres unmarked) [2-(2,6-Difluorophenyl)-4-(4′-trifluoromethylbiphenyl-4-yl)-4,5-dihydro-oxazole]
survival rate (salmon lice [1]): 0% | control (salmon lice [2]): 100% | duration of 100% control (salmon lice [2]): at least 3 month | tolerance by fish (fish): well tolerated by fish

Fc1cccc(Cl)c1C1=NC(c2ccc(-c3ccc(C(F)(F)F)cc3)cc2)CO1 (centres unmarked) [2-(2-Chloro-6-fluorophenyl)-4-(4′-trifluoromethylbiphenyl-4-yl)-4,5-dihydro-oxazole]
survival rate (salmon lice [1]): 0%

COP(=O)(OC)OC=C(Cl)Cl [Dichlorvos, 2,2-dichloroethenyldimethyl phosphate]
concentration required / effective to combat sea lice (sea lice): ≥ 1 ppm

COP(=O)(OC)C(O)C(Cl)(Cl)Cl (centres unmarked) [Trichlorfon, dimethyl-2,2,2-trichloro-1-hydroxyethylphosphonate]
concentration required / effective to combat sea lice (sea lice): 300 ppm
